From US12595269B2, “Morpholine-like monoamine releasers” (Solvonis Therapeutics Ireland Holdings Limited, priority 2022, dated 2026)
Where two headings read alike, the source gives them in different places.

What was measured:
[1] = molecular target: T1, CYP2C19 (Homo sapiens, UniProt P33261); experiment: CYP450 inhibition, fluorescent probe, recombinant microsomes: CYP2C19; assay type: in vitro ADME
T1 construct: host or cells: recombinant microsomes
Method: (§1) Methods and Procedure: The study was performed in agreement with previously described procedures to assure data integrity and adherence to GLP standards. Briefly, recombinant human CYP450 isoenzymes were used to metabolize pro-fluorescent probe substrates to fluorescent products. IC50 values determined from the effect of test compounds on the metabolism of these probe substrates were then used to determine inhibitory potency against CYP450 isoforms.
(§2) The test system was based on a three-step procedure with a “mix and read” format, where PGP-432,TI reaction and reading were performed at 37° C. […] Fluorescence was measured in kinetic mode (1 read/minutes for 10 minutes), and the fluorescence rate was calculated. […]
Microsomes were added to the buffer prior to the substrate addition. […] For fluorescence measurement, 10 μL/well of the test compounds were transferred from the compound plate to the assay plate using Biomek FX and the appropriate protocol. […]
10 μL/well of the cofactor was then added to the assay plate using the Multidrop before placing the assay plate in the plate reader EnVision to measure fluorescence. […]
Next, 10 μL/well from the compound plate was added and incubated for 10 minutes at 37° C. on a plate shaker, while a mixture of Vivid Substrate and Vivid NADP+ in Vivid CYP450 Reaction Buffer was prepared. […] Regarding data analysis, the inhibition effect is expressed as a percentage. […]

[2] = molecular target: T2, human 5-HT2A receptor (Homo sapiens, UniProt P28223); experiment: Intracellular calcium response (FLIPR) in CHO cells expressing human 5-HT2A receptor, agonist and antagonist modes; assay type: cell-based
T2 construct: expressed in transfected cells; host or cells: CHO
Method: Methods and Procedure: Selectivity for the 5-HT2A receptor was assessed by measuring [Ca^2+]; in a CHO recombinant cell line stably expressing the human 5-HT2A receptor, using Fluorometric Imaging Plate Reader (FLIPR TETRA, Molecular Devices).
The day before the experiment, CHO cells were seeded into clear-bottom 384-well plates at a density of 10,000 cells per well, in F-12K Medium (ThermoFisher #21127) supplemented with 10% dialyzed fetal bovine serum, and grown overnight at 37° C., 5% CO2.
On the day of the experiment, the medium was replaced with assay buffer (20 mM HEPES, 145 mM NaCl, 5 mM KCl, 5.5 mM glucose, 1 mM MgCl2, 2 mM CaCl2 and 2.5 mM probenecid, pH 7.4) containing the cytoplasmic Ca^2+ indicator Fluo-4 AM at 2 μM and 0.02% Pluronic F-127. After an incubation of 45-60 minutes at 37° C., 0% CO2, cells were washed by Microplate Washer (BIOTEK) 384 with assay buffer, and the plate was transferred in the FLIPR TETRA. Then, intracellular fluorescence was measured in real time by FLIPR TETRA (excitation wavelength at 470-495 nm, emission wavelength at 515-575 nm), using a dual addition protocol.
In the first addition, test compounds (11 points of 1:4 serial dilution, 0.5% DMSO final) were added to the cell plate to evaluate their effect on intracellular calcium levels. In the event of a response, the signal was elaborated for the determination of pEC50/EC50 values. […] Inhibition of 5-HT response vs. vehicle effect (0.5% DMSO) was elaborated for the determination of pIC50/IC50 values. […] A CRC of ketanserin was used as the internal antagonist control.

[3] = molecular target: T3, CYP2C8 (Homo sapiens, UniProt P10632); experiment: CYP450 inhibition, CYP2C8 Baculosomes, Vivid DBOMF substrate; assay type: in vitro ADME
T3 construct: purchased Life Technologies PV6138; host or cells: Baculosomes
T3 sequence (P10632 1-490): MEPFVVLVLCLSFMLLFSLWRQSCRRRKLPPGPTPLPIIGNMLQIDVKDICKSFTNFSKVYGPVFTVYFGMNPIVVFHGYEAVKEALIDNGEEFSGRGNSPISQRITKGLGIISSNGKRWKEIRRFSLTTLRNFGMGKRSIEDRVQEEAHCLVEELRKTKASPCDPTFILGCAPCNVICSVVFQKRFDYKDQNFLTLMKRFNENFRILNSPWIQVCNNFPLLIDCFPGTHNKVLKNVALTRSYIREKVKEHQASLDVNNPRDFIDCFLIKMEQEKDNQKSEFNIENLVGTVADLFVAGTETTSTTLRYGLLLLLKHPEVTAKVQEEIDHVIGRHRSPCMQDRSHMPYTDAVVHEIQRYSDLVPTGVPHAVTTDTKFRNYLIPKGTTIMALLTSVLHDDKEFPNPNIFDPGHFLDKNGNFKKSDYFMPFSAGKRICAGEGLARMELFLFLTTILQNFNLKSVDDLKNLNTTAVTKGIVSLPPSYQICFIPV
Method: as §1, §2
Next, 10 μL/well from the compound plate was added and incubated for 10 minutes at 37° C. on a plate shaker, while a mixture of Vivid Substrate and Vivid NADP+ in Vivid CYP450 Reaction Buffer was prepared. The reaction was initiated by adding 10 μL/well of the Vivid Substrate and NADP+ mixture, before transferring the plate into the fluorescent plate reader (immediately, within 2 minutes), and fluorescence was monitored every minute for 10 minutes according to the specific protocol. Regarding data analysis, the inhibition effect is expressed as a percentage. […]

T2 sequence (P28223 whole entry): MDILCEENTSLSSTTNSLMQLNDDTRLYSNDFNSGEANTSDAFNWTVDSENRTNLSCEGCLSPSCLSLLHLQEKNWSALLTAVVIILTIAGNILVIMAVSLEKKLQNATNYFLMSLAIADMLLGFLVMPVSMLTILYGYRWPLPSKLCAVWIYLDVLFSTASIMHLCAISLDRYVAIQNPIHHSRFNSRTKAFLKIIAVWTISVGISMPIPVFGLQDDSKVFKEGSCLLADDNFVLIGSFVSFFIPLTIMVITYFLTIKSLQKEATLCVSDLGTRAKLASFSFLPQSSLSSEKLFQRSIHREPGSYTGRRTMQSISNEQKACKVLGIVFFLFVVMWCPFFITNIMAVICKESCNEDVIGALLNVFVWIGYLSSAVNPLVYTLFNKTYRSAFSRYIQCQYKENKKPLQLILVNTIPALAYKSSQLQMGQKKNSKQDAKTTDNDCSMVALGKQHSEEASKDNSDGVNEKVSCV
T1 sequence (P33261 whole entry): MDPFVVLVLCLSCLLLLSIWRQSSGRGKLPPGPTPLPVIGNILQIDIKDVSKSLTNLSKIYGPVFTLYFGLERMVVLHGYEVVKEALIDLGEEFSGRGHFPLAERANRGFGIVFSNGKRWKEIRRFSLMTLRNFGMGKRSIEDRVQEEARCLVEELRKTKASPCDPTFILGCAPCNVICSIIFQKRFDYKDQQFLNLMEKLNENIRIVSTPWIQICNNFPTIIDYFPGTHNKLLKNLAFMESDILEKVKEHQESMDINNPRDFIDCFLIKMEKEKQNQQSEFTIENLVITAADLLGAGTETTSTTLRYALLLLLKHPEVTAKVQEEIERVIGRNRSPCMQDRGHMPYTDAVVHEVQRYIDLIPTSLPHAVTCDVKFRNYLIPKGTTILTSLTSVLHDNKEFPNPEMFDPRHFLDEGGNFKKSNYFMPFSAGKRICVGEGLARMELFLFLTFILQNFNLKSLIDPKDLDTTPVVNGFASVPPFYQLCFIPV

| Structure (SMILES) | IC50 ([1]; recombinant human CYP2C19) [µM] | EC50 ([2]; agonist mode, CHO cells, calcium response, read-out: 5-HT2A agonist selectivity (pEC50) (converted)) [µM] | EC50 ([2]; antagonist mode, versus serotonin EC80, read-out: 5-HT2A antagonist selectivity (represented as pEC50) (converted)) [µM] | IC50 ([3]; recombinant human CYP2C8) [µM] | IC50 at 10 min ([1]; human, recombinant microsomes expressing CYP2C19) [µM] | EC50 ([2]; 5-HT2A agonist selectivity (pEC50), agonist mode, CHO cells, calcium response) [µM] | EC50 ([2]; 5-HT2A antagonist selectivity (represented as pEC50), antagonist mode, versus serotonin EC80) [µM] | IC50 at 10 min ([3]; human, recombinant CYP2C8 Baculosomes, pH 8, probe Vivid DBOMF) [µM] |
| --- | --- | --- | --- | --- | --- | --- | --- | --- |
| Clc1ccc(C23CNC(CO2)C3)cc1Cl (centres unmarked) [522A, 1-(3,4-dichlorophenyl)-2-oxa-5-azabicyclo[2.2.1]heptane] | > 50 | 50.1 | 3.98 | > 50 | – | – | – | – |
| CNC(C)Cc1ccc2c(c1)OCO2 (centres unmarked) [MDMA, reference compound] | – | – | – | – | 50 | > 50.1 | > 50.1 | 50 |
